US8044211B2 (Chroma Therapeutics Ltd., priority 2006, dated 2011)
Structures can show the parent of a compound that is named as a salt. Where two headings read alike, the source gives them in different places.

Tests used:
THP-1 TNFα release = experiment: LPS-stimulation of THP-1 cells, TNF-α by ELISA; type: cell-based; conditions: IC50 range, LPS 1 μg/ml, 6 hrs, read-out: Inhibitor activity versus THP-1 TNFα release
Experimental: THP-1 cells were plated in 100 μl at a density of 4×10^4 cells/well in V-bottomed 96 well tissue culture treated plates and incubated at 37° C. in 5% CO2 for 16 hrs. 2 hrs after the addition of the inhibitor in […], of tissue culture media, the cells were stimulated with LPS (E. coli strain 005:B5, Sigma) at a final concentration of 1 μg/ml and incubated at 37° C. in 5% CO2 for 6 hrs. TNF-α levels were measured from cell-free supernatants by sandwich ELISA (R&D Systems #QTA00B).

p38 MAP Kinase a = target: T1, p38 MAP Kinase a (Homo sapiens, UniProt Q16539); experiment: p38 MAP Kinase activity, radiometric filter-binding assay (Upstate); type: biochemical; conditions: IC50 range; ATP at or close to Km; read-out: Inhibitor activity versus p38 MAPKa
T1 construct: purchased Upstate (Dundee UK)
T1 sequence (Q16539 whole entry): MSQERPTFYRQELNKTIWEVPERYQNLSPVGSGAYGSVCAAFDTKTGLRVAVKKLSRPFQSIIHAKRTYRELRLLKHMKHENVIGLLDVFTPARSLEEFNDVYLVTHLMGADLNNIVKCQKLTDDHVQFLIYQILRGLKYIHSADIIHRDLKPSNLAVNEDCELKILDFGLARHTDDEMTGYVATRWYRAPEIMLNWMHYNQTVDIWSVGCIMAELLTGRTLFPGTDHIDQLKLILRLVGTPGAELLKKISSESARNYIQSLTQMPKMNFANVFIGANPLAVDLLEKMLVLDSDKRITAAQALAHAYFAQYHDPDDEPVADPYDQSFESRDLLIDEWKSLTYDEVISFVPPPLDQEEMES
Experimental: The ability of compounds to inhibit p38 MAP a Kinase activity was measured in an assay performed by Upstate (Dundee UK). In a final reaction volume of 25 μL, p38 MAP Kinase a (5-10 mU) is incubated with 25 mM Tris pH 7.5, 0.002 mMEGTA, 0.33 mg/mL myelin basic protein, 10 mM MgAcetate and [g-33P-ATP] (specific activity approx. 500 cpm/pmol, concentration as required). The reaction is initiated by the addition of the MgATP mix. After incubation for 40 minutes at room temperature, the reaction is stopped by the addition of 5 μL of a 3% phosphoric acid solution. 10 μL of the reaction is then spotted onto a P30 filtermat and washed three times for 5 minutes in 75 mM phosphoric acid and once in methanol prior to drying and scintillation counting.
Duplicate data points are generated from a ⅓ log dilution series of a stock solution in DMSO. Nine dilutions steps are made from a top concentration of 10 μM, and a ‘no compound’ blank is included. The standard radiometric filter-binding assay is performed at an ATP concentration at, or close to, the Km. Data from scintillation counts are collected and subjected to free-fit analysis by Prism software. From the curve generated, the concentration giving 50% inhibition is determined and reported.

| Compound | IC50 (THP-1 TNFα release; Homo sapiens, THP-1) | IC50 (p38 MAP Kinase a) | IC50 (THP-1 TNFα release) |
| --- | --- | --- | --- |
| CC(C)C[C@H](NCCc1ccc(-n2c(N)c(C(=O)c3ccc(Cl)cc3)ccc2=O)cc1)C(=O)OC1CCCC1 [Example 65, Cyclopentyl N-[2-(4-{6-amino-5-[(4-chlorophenyl)carbonyl]-2-oxopyridin-1(2H)-yl}phenyl)ethyl]-L-leucinate] | < 0.1 µM | 0.1 to 1 µM |  |
| Cc1cc(C(=O)c2ccc(=O)n(-c3ccc(CN[C@@H](Cc4ccccc4)C(=O)OC4CCCC4)cc3)c2N)ccc1F [Example 5, Cyclopentyl(S)-2-{4-[6-Amino-5-(3-methyl-4-fluorobenzoyl)-2-oxo-2H-pyridin-1-yl]benzylamino}-3-phenylpropionate] | > 1 µM | 0.1 to 1 µM |  |
| Nc1c(C(=O)c2ccc(F)cc2)ccc(=O)n1-c1c(F)cc(OC2CCC(N[C@H](C(=O)OC3CCCC3)c3ccccc3)CC2)cc1F (stereo partly drawn) [Example 32, Cyclopentyl(2S)-[(4-{4-[6-amino-5-(4-fluorobenzoyl)-2-oxopyridin-1(2H)-yl]-3,5-difluorophenoxy}cyclohexyl)amino](phenyl)acetate] | < 0.1 µM | < 0.1 µM |  |
| Nc1c(C(=O)c2ccc(F)cc2F)ccc(=O)n1-c1ccc(OCCCN[C@H](C(=O)OC2CCCC2)c2ccccc2)cc1 [Example 28, Cyclopentyl(S)-(3-{4-[6-Amino-5-(2,4-difluorobenzoyl)-2-oxo-2H-pyridin-1-yl]1-phenoxy}propylamino)phenyl acetate] | < 0.1 µM | < 0.1 µM |  |
| Nc1c(C(=O)c2ccc(F)cc2)ccc(=O)n1-c1c(F)cc(OC2CCC(N[C@@H](Cc3ccccc3)C(=O)OC3CCCC3)CC2)cc1F (some centres unmarked) [Example 31, trifluoroacetate] | < 0.1 µM | < 0.1 µM |  |
| Nc1c(C(=O)c2ccc(F)cc2F)ccc(=O)n1-c1c(F)cc(OCCCN[C@H](C(=O)OC2Cc3ccccc3C2)c2ccccc2)cc1F [Example 40, 2,3-Dihydro-1H-inden-2-yl (2S)-[(3-{4-[6-amino-5-(2,4-difluorobenzoyl)-2-oxopyridin-1(2H)-yl]-3,5-difluorophenoxy}propyl)amino](phenyl)acetate] | < 0.1 µM | < 0.1 µM |  |
| CC(C)C[C@H](NCCCOc1ccc(-n2c(N)c(C(=O)c3ccc(F)cc3)ccc2=O)c(F)c1)C(=O)OC1CCCC1 [Example 66, Cyclopentyl N-[3-(4-{6-amino-5-[(4-fluorophenyl)carbonyl]-2-oxopyridin-1(2H)-yl}-3-fluorophenoxy)propyl]-L-leucinate] | 0.1 to 1 µM | 0.1 to 1 µM |  |
| Cyclopentyl(S)-2-{4-[6-Amino-5-(2,4-fluorobenzoyl)-2-oxo-2H-pyridin-1-yl]-3,5-difluorobenzylamino}-3-phenylpropionate [Example 10] |  | < 0.1 µM | 0.1 to 1 µM |
| Nc1c(C(=O)c2ccc(F)cc2F)ccc(=O)n1-c1ccc(OCCCN[C@@H](Cc2ccccc2)C(=O)OC2CCCC2)cc1 [Example 29, Cyclopentyl(S)-2-(3-{4-[6-Amino-5-(2,4-difluorobenzoyl)-2-oxo-2H-pyridin-1-yl]phenoxy}propylamino)-3-phenyl propionate] | 0.1 to 1 µM | < 0.1 µM |  |
| CC(C)C[C@H](NCCc1ccc(-n2c(N)c(C(=O)c3ccc(F)cc3F)ccc2=O)cc1)C(=O)OC(C)(C)C [Example 60, tert-Butyl N-[2-(4-{6-amino-5-[(2,4-difluorophenyl)carbonyl]-2-oxopyridin-1(2H)-yl}phenyl)ethyl]-L-leucinate] | < 0.1 µM | 0.1 to 1 µM |  |
| Nc1c(C(=O)c2ccc(F)cc2)ccc(=O)n1-c1ccc(CN[C@@H](Cc2ccccc2)C(=O)OC2CCCC2)cc1 [Example 2, Cyclopentyl(S)-2-{4-[6-Amino-5-(4-fluorobenzoyl)-2-oxo-2H-pyridin-1-yl]benzylamino}-3-phenylpropionate] | > 1 µM | 0.1 to 1 µM |  |
| Cc1ccc(C(=O)c2ccc(=O)n(-c3ccc(CCN[C@@H](CC(C)C)C(=O)OC4CCCC4)cc3)c2N)cc1 [Example 63, Cyclopentyl N-[2-(4-{6-amino-5-[(4-methylphenyl)carbonyl]-2-oxopyridin-1(2H)-yl}phenyl)ethyl]-L-leucinate] | < 0.1 µM | > 1 µM |  |
| Nc1c(C(=O)c2ccc(F)cc2F)ccc(=O)n1-c1c(F)cc(OCCCN[C@H](C(=O)OC2CC3CCC2C3)c2ccccc2)cc1F (stereo partly drawn) [Example 43, Bicyclo[2.2.1]hept-2-yl(2S)-[(3-{4-[6-amino-5-(2,4-difluorobenzoyl)-2-oxopyridin-1(2H)-yl]-3,5-difluorophenoxy}propyl)amino](phenyl)acetate] | < 0.1 µM | < 0.1 µM |  |
| CC(C)C[C@H](NCCCOc1ccc(-n2c(N)c(C(=O)c3ccc(F)cc3F)ccc2=O)cc1)C(=O)OC1CCCC1 [Example 30, Cyclopentyl(S)-2-(3-{4-[6-Amino-5-(2,4-difluorobenzoyl)-2-oxo-2H-pyridin-1-yl]phenoxy}propylamino)-4-methyl pentanoate] | < 0.1 µM | < 0.1 µM |  |
| CCOC(=O)[C@H](CC(C)C)NCCCOc1cc(F)c(-n2c(N)c(C(=O)c3ccc(F)cc3)ccc2=O)c(F)c1 [Example 16, Ethyl N-(3-{4-[6-amino-5-(4-fluorobenzoyl)-2-oxopyridin-1(2H)-yl]-3,5-difluorophenoxy}propyl)-L-leucinate] | < 0.1 µM | < 0.1 µM |  |
| CC(C)C[C@H](NCCCCCOc1cc(F)c(-n2c(N)c(C(=O)c3ccc(F)cc3F)ccc2=O)c(F)c1)C(=O)OC(C)(C)C [Example 54, tert-Butyl N-(5-{4-[6-amino-5-(2,4-difluorobenzoyl)-2-oxopyridin-1(2H)-yl]-3,5-difluorophenoxy}pentyl)-L-leucinate] | < 0.1 µM | < 0.1 µM |  |
| Nc1c(C(=O)c2ccc(F)cc2)ccc(=O)n1-c1ccc(OCCCN[C@@H](Cc2ccccc2)C(=O)OC2CCCC2)cc1 [Example 24, Cyclopentyl(S)-2-(3-{4-[6-Amino-5-(4-fluorobenzoyl)-2-oxo-2H-pyridin-1-yl]phenoxy}propylamino)-3-phenylpropionate] | 0.1 to 1 µM | < 0.1 µM |  |
| O=C(c1ccc(F)cc1)c1ccc(=O)[nH]c1Nc1c(F)cc(CN[C@@H](Cc2ccccc2)C(=O)OC2CCCC2)cc1F [Example 71, Cyclopentyl(S)-2-[3,5-Difluoro-4-[3-(4-fluorobenzoyl)-6-oxo-1,6-dihydropyridin-2-ylamino]benzylamino]-3-phenylpropionate] | > 1 µM | < 0.1 µM |  |
| Cc1cc(C(=O)c2ccc(=O)n(-c3ccc(OCCCN[C@@H](Cc4ccccc4)C(=O)O)cc3)c2N)ccc1F [Example 83, (S)-2-(3-{4-[6-Amino-5-(3-methyl-4-fluorobenzoyl)-2-oxo-2H-pyridin-1-yl]phenoxy}propylamino)-3-phenyl propionic acid] |  | < 0.1 µM |  |
| Nc1c(C(=O)c2ccc(F)cc2)ccc(=O)n1C1CCC(N[C@@H](Cc2ccccc2)C(=O)O)CC1 (stereo partly drawn) [Example 105, (S)-2-{4-[6-Amino-5-(4-fluorobenzoyl)-2-oxo-2H-pyridin-1-yl]cyclohexylamino}-3-phenylpropionic acid] |  | 0.1 to 1 µM |  |
| CC(C)C[C@H](NCCCCCOc1cc(F)c(-n2c(N)c(C(=O)c3ccc(F)cc3F)ccc2=O)c(F)c1)C(=O)O [Example 116, N-(5-{4-[6-amino-5-(2,4-difluorobenzoyl)-2-oxopyridin-1(2H)-yl]-3,5-difluorophenoxy}pentyl)-L-leucine] |  | < 0.1 µM |  |
| Nc1c(C(=O)c2ccc(F)cc2)ccc(=O)n1-c1ccc(OCCCN[C@H](C(=O)O)c2ccccc2)cc1 [Example 94, (S)-(3-{4-[6-Amino-5-(4-fluorobenzoyl)-2-oxo-2H-pyridin-1-yl]-Phenoxy}propylamino)phenylacetic acid] |  | < 0.1 µM |  |
| Nc1c(C(=O)c2ccc(F)cc2)ccc(=O)n1-c1ccc(CN[C@H](C(=O)O)c2ccccc2)cc1 [Example 75, (S)-{4-[6-Amino-5-(4-fluorobenzoyl)-2-oxo-2H-pyridin-1-yl]benzylamino}phenylacetic acid] |  | 0.1 to 1 µM |  |
| CC(C)C[C@H](NCCc1ccc(-n2c(N)c(C(=O)c3ccc(F)cc3)ccc2=O)cc1)C(=O)O [Example 111, N-[2-(4-{6-amino-5-[(4-fluorophenyl)carbonyl]-2-oxopyridin-1 (2H)-yl}phenyl)ethyl]-L-leucine] |  | 0.1 to 1 µM |  |
| CC(C)C[C@H](NCCCOc1cc(F)c(-n2c(N)c(C(=O)c3ccc(F)cc3F)ccc2=O)c(F)c1)C(=O)O [Example 97, (S)-2-(3-{4-[6-Amino-5-(2,4-difluorobenzoyl)-2-oxo-2H-pyridin-1-yl]-3,5-difluorophenoxy}propylamino)-4-methyl pentanoic acid] |  | < 0.1 µM |  |
| CC(C)C[C@H](NC(=O)COc1ccc(-n2c(N)c(C(=O)c3ccc(F)cc3)ccc2=O)cc1)C(=O)O [Example 110, N-({4-[6-Amino-5-(4-fluorobenzoyl)-2-oxopyridin-1(2H)-yl]phenoxy}-acetyl)-L-leucine] |  | 0.1 to 1 µM |  |
